Reference: patent publication US11939241B2, “Stable percarboxylic acid compositions and uses thereof” (Ecolab USA Inc., priority 2012, dated 2024)

Assay: Quantitation of peroxide gases of decomposition (U-tube manometer)
Assay type: physicochemical
Protocol: The volume of peroxides' gases of decomposition was measured using a water filled U-tube fitted with a minimal volume tubing connected to a non-coring syringe needle. The manometer made of pyrex glass was filled partially with deionized water colored with FD&C blue dye #1 and 1,000 ppm of non-ionic surfactant. The dye allows for increased visibility of the water columns and the surfactant lowers the surface tension allowing for unbroken water columns. The manometer was also fitted with a metric ruler to allow the convenient determination of the column heights difference. Given that 1 atmosphere of pressure corresponds with […] of water column height and the limit of resolution on the column and ruler combination is about 1 mm, the signal/noise ratio approximates […].
Procedure. Four head space vials were double rinsed with the sample solution before adding 5 mL of sample solution (via Repeat Pipettor) and sealing the vials with a silicone backed PTFE septum with aluminum cap. Immediately after sealing the vials the temperature and barometric pressure were recorded. A set of water blank replicates of the same volume were also included. The sealed vials were stored for 24-48 hours at ambient temperatures inside a dark cabinet to allow for optimal gas pressure generation.
Calculations. By calibration of the U-tube water column displacement using a precision gas syringe, the water column height to gas volume ratio was calculated. Using the assumption of peroxide decay to molecular oxygen (ignoring CO2 or CO gases etc.), these values were converted to gas volumes and the loss of available oxygen in the sample was thereby calculated using the formulae below: 2 moles of RCO3H→2 moles of RCO2H+1 mole of O2(22.4 L of O2 at standard temperature and pressure) And 2 moles of H2O2→2 moles of H2O+1 mole of O2(22.4 L of O2 at standard temperature and pressure)

## Hydrogen peroxide [F]
5 mL sample, sealed vial, 24-48 hours, ambient temperature
  Net O2 Lost: 0.017 g
5 mL sample, sealed vial, 24-48 hours, ambient temperature, dark
  Net Gas Gen.: 11.9 mL
24-48 hours, ambient temperature
  Rel. Loss O2: 0.02% w/w, %
initial
  Initial H2O2: 50.00 w/w, %
  Initial POAA: 0.00 w/w, %
Initial available oxygen
  Initial O2: 23.53 w/w, %
